Converted amounts (≈) assume the structure as drawn. Like-named read-outs stand apart in the source and are kept apart here.
Key:
[1] = system: resistant green rice leafhoppers (R); conditions: 1440 min
Experimental: (1) A 20-mg portion of a given test compound was weighed out and dissolved in 10 ml of acetone. The resultant solution was diluted at proper times with acetone.
(2) With a micro-syringe, the acetone solution of the test compound was topically applied to the thoracic region of female green rice leafhoppers at a fixed dose of 0.2 μl per head.
(3) The female green rice leafhoppers thus treated were placed in a plastic cup prepared in advance (measuring 7 cm in diameter and 3.5 cm in depth and containing rice seeds) and kept at a constant temperature of 26±1° C. After 24 hours' standing, the dead insects were counted.
In the case of a mixed insecticide, the LD50 was shown as a total dosage.

in vivo = conditions: mouse, po
Experimental: Different amounts of the suspension were injected into the stomaches of test mice with a metal tube. For the test, male mice of the species ddY were used.

[2] = system: green rice leafhoppers of the strain RN; test: Test Example 3: dust spray test (20 mesh metal gauze cylinder); format: in vivo, Nephotettix cincticeps; conditions: for Effect of individual compound (RN), death ratio (%) (Table 9): dust, compound alone, RN strain; for mortality at 250 mg/cylinder / mortality at 100 mg/cylinder: 24 hr
[3] = system: Culex pipiens pallens immunized against organophosphoric preparations, last larval state; test: Test Example 9 (W.H.O. method): mosquito larvae test; format: in vivo; conditions: read-out: Effect of compound used singly, LD50 (Table 16)
Experimental: (1) An ethyl alcohol solution of each test compound was diluted with water to varying concentrations in the range of from 0.01 to 1.0 ppm.
(2) A 200-ml portion of each solution of a different concentration was placed in a 300-ml beaker. Then 30 test insects were plunged into the solution and then removed.
(3) The insects removed from the solution were kept in a greenhouse at a constant temperature of 25±1° C. for 24 hours. At the end of 24 hours of standing, a count was taken of the number of insects that had died by that time.
The test described above was repeated twice or thrice.

[4] = system: green rice leafhoppers of the strain RN; test: Test Example 4: dust test with 35 mesh metal gauze; format: in vivo, Nephotettix cincticeps; conditions: Table 10, 35 mesh
Experimental: The test for insecticidal activity was performed by the following procedure. […] The dust of a test compound (pulverized by means of a shaking pulverizer made by Taira Kosakusho, Ltd.) was applied onto the tube contents at a prescribed rate by spraying from outside the metal gauze by means of a bell-jar duster. The dust of the test compound was prepared uniformly mixing 2 parts of the dust of the individual compound or 1 part each of the dusts of the mixture components (total 2 parts) and 98 parts of a carrier obtained by mixing talc and clay in equal volumes.

[5] = system: citrus red mites (Panonychus citri McGregor) immunized from Dimethoate; test: whole plant or invertebrate; conditions: foliar, 24 h, read-out: Mortality (%), Concentration 250 ppm
[6] = system: resistant green rice leafhoppers of RN-strain; conditions: green rice leafhopper, in vivo, topical or ocular
[7] = ratio of the resistant strain to the susceptible strain (LD50)
[8] = 2% dust, 250 mg, read-out: Mortality (%) after 24 hr., 250 mg Spray (Table 7)
[9] = 2% dust, 100 mg, read-out: Mortality (%) after 24 hr., 100 mg Spray (Table 7)
[10] = resistant Culex pipiens pallens larvae, compound alone, 24 hours

Q: For `CNC(=O)Oc1ccccc1C(C)C` [Compound 1, 2-isopropylphenyl-N-methylcarbamate, reference compound], which “Insecticidal Activity R/S (resistant ratio)” value [1, 7] is on record?
A: 23.0

Q: And the “LD50 (μg/g) (Table 6), single compound” value ([1]; resistant strain (R), compound alone)?
A: 82.2 µg/g

Q: What about the LD50 at 168 h (in vivo) of the same compound?
A: 210 mg/kg

Q: What about the “Effect of individual compound (RN), death ratio (%) (Table 9)” value (shortened to “Effect … death ratio (%) (Table 9)”) [2] of the same compound?
A: 0%

Q: Which “Insecticidal Activity R/S (resistant ratio)” value [1, 7] does the source give for `CCCNC(=O)Oc1ccccc1C(C)C` [Compound 3, 2-isopropylphenyl-N-n-propylcarbamate] here?
A: 1.3

Q: And the LD50 at 168 h (in vivo)?
A: 1130 mg/kg

Q: And the LC50 ([3]; Culex pipiens, 24 h)?
A: > 1 µg/mL

Q: With `CCC(C)c1ccccc1OC(=O)NC` (stereo not drawn) [Compound 6, 2-sec-butylphenyl-N-methylcarbamate] as the compound, how does the “Insecticidal Activity R/S (resistant ratio)” value [1, 7] read?
A: 28.4

Q: And the mortality at 100 mg ([4]; 1 hr, read-out: Death ratio (%) 1 hr., Dusting amount 100 mg)?
A: 0%

Q: What about the mortality at 100 mg ([4]; 2 hrs, read-out: Death ratio (%) 2 hrs., Dusting amount 100 mg) of the same compound?
A: 0%

Q: And the mortality at 100 mg ([4]; 4 hrs, read-out: Death ratio (%) 4 hrs., Dusting amount 100 mg)?
A: 0%

Q: And the mortality at 100 mg ([4]; 16 hrs, read-out: Death ratio (%) 16 hrs., Dusting amount 100 mg)?
A: 0%

Q: And the mortality at 100 mg ([4]; 24 hrs, read-out: Death ratio (%) 24 hrs., Dusting amount 100 mg)?
A: 0%

Q: What about the mortality at 250 mg ([4]; 1 hr, read-out: Death ratio (%) 1 hr., Dusting amount 250 mg) of the same compound?
A: 0%

Q: What about the mortality at 250 mg ([4]; 2 hrs, read-out: Death ratio (%) 2 hrs., Dusting amount 250 mg) of the same compound?
A: 0%

Q: And the mortality at 250 mg ([4]; 4 hrs, read-out: Death ratio (%) 4 hrs., Dusting amount 250 mg)?
A: 0%

Q: And the mortality at 250 mg ([4]; 16 hrs, read-out: Death ratio (%) 16 hrs., Dusting amount 250 mg)?
A: 0%

Q: What about the mortality at 250 mg ([4]; 24 hrs, read-out: Death ratio (%) 24 hrs., Dusting amount 250 mg) of the same compound?
A: 0%

Q: And the mortality at 500 mg ([4]; 1 hr, read-out: Death ratio (%) 1 hr., Dusting amount 500 mg)?
A: 0%

Q: What about the mortality at 500 mg ([4]; 2 hrs, read-out: Death ratio (%) 2 hrs., Dusting amount 500 mg) of the same compound?
A: 0%

Q: What about the mortality at 500 mg ([4]; 4 hrs, read-out: Death ratio (%) 4 hrs., Dusting amount 500 mg) of the same compound?
A: 0%

Q: What about the mortality at 500 mg ([4]; 16 hrs, read-out: Death ratio (%) 16 hrs., Dusting amount 500 mg) of the same compound?
A: 0%

Q: And the mortality at 500 mg ([4]; 24 hrs, read-out: Death ratio (%) 24 hrs., Dusting amount 500 mg)?
A: 0%

Q: What about the mortality at 250 mg/cylinder [2, 8] of the same compound?
A: 10%

Q: What about the “Effect … death ratio (%) (Table 9)” value [2] of the same compound?
A: 0%

Q: With `CCCNC(=O)Oc1ccccc1C(C)CC` (stereo not drawn) [Compound 8, 2-sec-butylphenyl-N-n-propylcarbamate] as the compound, how does the “Insecticidal Activity R/S (resistant ratio)” value [1, 7] read?
A: 1.2

Q: What about the LC50 ([3]; Culex pipiens, 24 h) of the same compound?
A: > 1 µg/mL

Q: And the mortality at 250 mg/cylinder [2, 8]?
A: 80%

Q: What does the source list for `CCC(C)c1cccc(OC(=O)NC)c1` (stereo not drawn) [Compound 15, 3-sec-butylphenyl-N-methylcarbamate, reference compound]?
A: Insecticidal Activity R/S (resistant ratio) [1, 7]: 19.0; LD50 at 168 h (in vivo): 87 mg/kg

Q: For `CCCNC(=O)Oc1cccc(C(C)CC)c1` (stereo not drawn) [Compound 17, 3-sec-butylphenyl-N-n-propylcarbamate], which “Insecticidal Activity R/S (resistant ratio)” value [1, 7] is on record?
A: 1.2

Q: And the LD50 at 168 h (in vivo)?
A: 30 to 300 mg/kg

Q: What about the mortality (in vivo; 30 mg/kg) of the same compound?
A: 0%

Q: What about the mortality (in vivo; 300 mg/kg) of the same compound?
A: 100%

Q: With `CCCC(C)c1cccc(OC(=O)NC)c1` (stereo not drawn) [Compound 19, 3-sec-amylphenyl-N-methylcarbamate, reference compound] as the compound, how does the “Insecticidal Activity R/S (resistant ratio)” value ([1]; green rice leafhopper, in vivo, topical_or_ocular) read?
A: 9.3

Q: And the LD50 at 168 h (in vivo)?
A: 54 mg/kg

Q: With `CCCNC(=O)Oc1cccc(C(C)CCC)c1` (stereo not drawn) [Compound 21, 3-sec-amylphenyl-N-n-propylcarbamate] as the compound, how does the “Insecticidal Activity R/S (resistant ratio)” value [1, 7] read?
A: 2.9

Q: What about the LD50 at 168 h (in vivo) of the same compound?
A: 300 mg/kg

Q: With `CCCNC(=O)Oc1ccc(C)c(C)c1` [Compound 37, 3,4-dimethylphenyl-N-n-propylcarbamate] as the compound, how does the “Insecticidal Activity R/S (resistant ratio)” value [1, 7] read?
A: 0.8

Q: What about the LC50 ([3]; Culex pipiens, 24 h) of the same compound?
A: > 1 µg/mL

Q: What about the mortality at 100 mg/cylinder [2, 9] of the same compound?
A: 60%

Q: What about the mortality at 250 mg/cylinder [2, 8] of the same compound?
A: 90%

Q: For `CCCNC(=O)Oc1cc(C)cc(C)c1` [Compound 42, 3,5-dimethylphenyl-N-n-propylcarbamate], which “Insecticidal Activity R/S (resistant ratio)” value [1, 7] is on record?
A: 0.7

Q: What about the LC50 ([3]; Culex pipiens, 24 h) of the same compound?
A: > 1 µg/mL

Q: What about the mortality at 100 mg/cylinder [2, 9] of the same compound?
A: 70%

Q: What about the mortality at 250 mg/cylinder [2, 8] of the same compound?
A: 95%

Q: What about the mortality at 100 mg/cylinder ([2]; Table 8, dust 100 mg, read-out: Mortality (%) after 24 hr., Spray Volume 100 mg) of the same compound?
A: 70%

Q: And the mortality at 250 mg/cylinder ([2]; Table 8, dust 250 mg, read-out: Mortality (%) after 24 hr., Spray Volume 250 mg)?
A: 95%

Q: With `CCCNC(=O)Oc1ccc(CC)c(CC)c1` [Compound 51, 3,4-diethylphenyl-N-n-propylcarbamate] as the compound, how does the mortality at 250 ppm [5] read?
A: 80%

Q: With `CCCNC(=O)Oc1ccccc1OC(C)C` [Compound 83, 2-isopropoxyphenyl-N-n-propylcarbamate] as the compound, how does the LC50 ([3]; Culex pipiens, 24 h) read?
A: > 1 µg/mL

Q: What about the “death ratio (%), mixture with Compound No. 1” value ([2]; Table 9, dust mixed with 1, RN) of the same compound?
A: 80.0%

Q: And the “death ratio (%), mixture with Compound No. 6*” value ([2]; Table 9, dust mixed with 6*, RN)?
A: 95.0%

Q: What about the “death ratio (%), mixture with Compound No. 24*” value ([2]; Table 9, dust mixed with 24*, RN) of the same compound?
A: 82.5%

Q: And the “death ratio (%), mixture with Compound No. 35*” value ([2]; Table 9, dust mixed with 35*, RN)?
A: 100%

Q: And the “death ratio (%), mixture with Compound No. 40*” value ([2]; Table 9, dust mixed with 40*, RN)?
A: 82.5%

Q: And the “death ratio (%), mixture with Compound No. 49*” value ([2]; Table 9, dust mixed with 49*, RN)?
A: 50.0%

Q: What about the “death ratio (%), mixture with Compound No. 81*” value ([2]; Table 9, dust mixed with 81*, RN) of the same compound?
A: 100%

Q: What about the “death ratio (%), mixture with Compound No. 118*” value ([2]; Table 9, dust mixed with 118*, RN) of the same compound?
A: 95.0%

Q: What about the “death ratio (%), mixture with Carbofuran” value ([2]; Table 9, dust mixed with Carbofuran, RN) of the same compound?
A: 100%

Q: And the “death ratio (%), mixture with Methomyl” value ([2]; Table 9, dust mixed with Methomyl, RN)?
A: 100%

Q: And the “Effect … death ratio (%) (Table 9)” value [2]?
A: 20.0%

Q: For `CCCNC(=O)Oc1cc(C)c(N(C)C)c(C)c1` [Compound 120, 3,5-dimethyl-4-dimethylaminophenyl-N-n-propylcarbamate], which LD50 at 168 h (in vivo) is on record?
A: 30 to 300 mg/kg

Q: And the mortality (in vivo; 30 mg/kg)?
A: 0%

Q: And the mortality (in vivo; 300 mg/kg)?
A: 100%

Q: For `CCOP(=S)(OCC)Oc1cc(C)nc(C(C)C)n1` [Diazinone, diethyl 2-isopropyl-6-methyl-4-pyrimidinyl phosphorothionate], which “LD50 (μg/g) (Table 13)” value [6] is on record?
A: 62.3 µg/g

Q: And the “LD50 (μg/g) (Table 14)” value [6]?
A: 62.2 µg/g

Q: What about the LC50 ([3]; Culex pipiens, 24 h) of the same compound?
A: 0.31 µg/mL (≈ 1.02 µM)

Q: With `CC(C)OP(=O)(OC(C)C)SCc1ccccc1` [IBP, S-benzyl diisopropyl phosphorothiolate] as the compound, how does the “LD50 (μg/g) (Table 14)” value [6] read?
A: > 1,000 μg/g

Q: Which “LD50 (μg/g) (Table 13)” value [6] does the source give for `COP(=S)(OC)Oc1ccc([N+](=O)[O-])c(C)c1` [MEP, dimethyl 4-nitro-m-tolyl phosphorothionate] here?
A: > 4,000 μg/g

Q: And the LC50 [3, 10]?
A: 0.18 µg/mL (≈ 0.649 µM)

Q: Which “LD50 (μg/g) (Table 13)” value [6] does the source give for `COP(=S)(OC)Oc1ccc(SC)c(C)c1` [MPP, dimethyl 4-methylthio-m-tolyl phosphorothionate] here?
A: > 1,000 μg/g

Q: What about the LC50 [3, 10] of the same compound?
A: 0.1 µg/mL (≈ 0.359 µM)

Q: For `CCOC(=O)CC(SP(=S)(OC)OC)C(=O)OCC` (stereo not drawn) [Malathion, S-[1,2-bis(ethoxycarbonyl)ethyl]dimethyl phosphorothiolothionate, reference compound], which LC50 ([3]; Culex pipiens, 24 h) is on record?
A: 0.31 µg/mL (≈ 0.938 µM)

Q: What does the source list for `CCOC(=O)C(SP(=S)(OC)OC)c1ccccc1` (stereo not drawn) [PAP, S-[α-(ethoxycarbonyl)benzyl]dimethyl phosphorothiolothionate]?
A: LD50 (μg/g) (Table 13) [6]: 804.3 µg/g; LC50 [3, 10]: 0.16 µg/mL (≈ 0.499 µM)

From US4226883A, “Carbamate derivatives and method for manufacture thereof” (priority 1974, dated 1980)
